Assay results published in patent US20220267260A1, “COMPOUNDS CONTAINING A SULFONIC GROUP AS KAT INHIBITORS” (Epizyme, Inc., priority 2016, published 2022).

Key:
[1] = molecular target: T1, KAT6A (Homo sapiens, UniProt Q92794); assay: KAT6A enzyme inhibition assay (SAMDI mass spectrometry); assay type: biochemical; conditions: His-TEV-KAT6A 501-784 enzyme construct
T1 construct: His-TEV tag (N, cleaved yes); made in house

[2] = molecular target: T2, KAT5 (Homo sapiens, UniProt Q92993); assay: KAT5 enzyme inhibition assay (SAMDI mass spectrometry); assay type: biochemical; conditions: His-TEV-FL KAT5-Flag enzyme construct
T2 construct: His-TEV tag (N, cleaved yes); made in house
T2 sequence (Q92993 with tags, fused parts or gaps): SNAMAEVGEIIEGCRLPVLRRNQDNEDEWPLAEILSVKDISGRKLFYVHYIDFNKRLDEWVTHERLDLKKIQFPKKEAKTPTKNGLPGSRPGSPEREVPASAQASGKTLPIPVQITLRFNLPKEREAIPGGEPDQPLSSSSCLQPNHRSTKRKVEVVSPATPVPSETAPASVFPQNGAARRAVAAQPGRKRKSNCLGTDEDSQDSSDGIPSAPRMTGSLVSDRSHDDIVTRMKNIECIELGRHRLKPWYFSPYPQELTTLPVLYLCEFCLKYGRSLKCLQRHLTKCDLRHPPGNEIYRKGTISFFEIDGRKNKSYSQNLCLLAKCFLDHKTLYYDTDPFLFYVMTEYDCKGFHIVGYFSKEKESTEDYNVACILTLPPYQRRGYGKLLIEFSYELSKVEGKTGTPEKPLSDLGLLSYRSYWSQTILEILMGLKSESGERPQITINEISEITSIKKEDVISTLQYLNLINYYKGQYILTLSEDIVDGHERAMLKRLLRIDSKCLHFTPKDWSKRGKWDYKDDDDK

T1 sequence (Q92794 with tags, fused parts or gaps): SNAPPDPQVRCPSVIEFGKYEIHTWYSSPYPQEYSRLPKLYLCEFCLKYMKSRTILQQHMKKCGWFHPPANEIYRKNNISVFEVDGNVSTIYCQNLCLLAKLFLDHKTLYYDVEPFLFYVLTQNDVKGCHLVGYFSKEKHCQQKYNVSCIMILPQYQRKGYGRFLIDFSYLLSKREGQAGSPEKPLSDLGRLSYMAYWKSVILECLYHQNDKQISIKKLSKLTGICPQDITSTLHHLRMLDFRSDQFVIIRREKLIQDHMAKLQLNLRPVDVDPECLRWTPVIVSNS

| Structure (SMILES) | IC50 [1] [µM] | IC50 [2] [µM] |
| --- | --- | --- |
| O=C(NNS(=O)(=O)CC1CCCCC1)c1cc(-c2cn3ccccc3n2)cc(Cl)c1F [Compound I-510] | > 100 | ≤ 10 |
| CC(C)C(Cc1ccccc1)CS(=O)(=O)NNC(=O)c1ccccc1 (stereo not drawn) [Compound I-265] | > 100 | > 100 |
| O=C(NNS(=O)(=O)C1CCOCC1)c1cc(Cn2ccnc2)cc(Cl)c1F [Compound I-440] | > 100 | > 100 |
| O=C(NCCO)c1cc(Cl)c(F)c(C(=O)NNS(=O)(=O)C2CCOCC2)c1 [Compound I-480] | > 100 | > 100 |
| Cc1cccc(-c2cc(Cl)c(F)c(C(=O)NNS(=O)(=O)CC3CCNC3)c2)c1 (stereo not drawn) [Compound I-517] | > 100 | > 100 |
| Cc1cc(-c2cccc(F)c2)cc(C(=O)NNS(=O)(=O)CC2CCN(C(=O)CCN(C)C)CC2)c1F [Compound I-432] | 10 to 50 | 10 to 50 |
| Cc1cc(-c2ccccc2)cc(C(=O)NNS(=O)(=O)C(C)C2CCCN(C(=O)OC(C)(C)C)C2)c1F (stereo not drawn) [Compound I-313] | 10 to 50 | ≤ 10 |
| Cc1cc(-c2ccccc2)cc(C(=O)NNS(=O)(=O)CC2CCNCC2)c1F [Compound I-141] | > 100 | 50 to 100 |
| CCS(=O)(=O)NNC(=O)c1cc(-c2ccccc2)cc(C)c1F [Compound I-2] | 10 to 50 | 10 to 50 |
| COCCN1CCC(C(C)S(=O)(=O)NNC(=O)c2cc(-c3ccccc3)cc(C)c2F)CC1 (stereo not drawn) [Compound I-277] | 10 to 50 | 10 to 50 |
| COCCN1CCC(S(=O)(=O)NNC(=O)c2cc(-c3ccccc3)cc(C)c2F)CC1 [Compound I-93] | 10 to 50 | 10 to 50 |
| O=S(=O)(NNc1n[nH]c2c(-c3ccccc3)cccc12)c1ccccc1 [Compound I-50] | > 100 | 50 to 100 |
| COCC(=O)N1CCC(CS(=O)(=O)NNC(=O)c2cc(-c3ccccc3)cc(C)c2F)CC1 [Compound I-344] | ≤ 10 | ≤ 10 |
| Cc1c(F)c(C(=O)NNS(=O)(=O)C2CCCCC2)nn1C [Compound I-475] | > 100 | > 100 |
| Cc1cc(-c2cccc(C(=O)OCc3ccccc3)c2)cc(C(=O)NNS(=O)(=O)c2ccccc2)c1F [Compound I-449] | 50 to 100 | 50 to 100 |
